The values that follow come from the OligoGym collection.

Oligonucleotides are written 5' to 3', each unit as a sugar letter and its base; * is a phosphorothioate linkage, no mark a phosphodiester; rarer units and linkages stand in square brackets, end groups in braces. Plain capitals give the bases only. d = 2'-deoxy (DNA); r = 2'-OH (RNA)
Also: test concentration or dose not given here.

The data set deals with UBE2V1. Description: reporter assay of Huesken 2005. Conditions: siRNA.
With “sense rCrArArUrUrUrCrCrGrArCrUrGrUrUrGrGrArAdTdT / antisense rUrUrCrCrArArCrArGrUrCrGrGrArArArUrUrGdCdG”, the normalised inhibition (eCFP-eYFP dual reporter) stood at 95.3%. On to “sense rCrArGrArArUrUrCrArUrArUrArGrCrArUrCrAdTdT / antisense rUrGrArUrGrCrUrArUrArUrGrArArUrUrCrUrGdCdC”, for which the normalised inhibition (eCFP-eYFP dual reporter) was found to be 90%. The value for “sense rCrArGrUrGrCrUrArGrCrArArArArUrGrGrCrAdTdT / antisense rUrGrCrCrArUrUrUrUrGrCrUrArGrCrArCrUrGdAdT” was 87.5%. The value for “sense rCrArUrArUrArGrCrArUrCrArArArGrUrUrGrUdTdT / antisense rArCrArArCrUrUrUrGrArUrGrCrUrArUrArUrGdAdA” was 77.7%. The value for “sense rCrCrCrUrCrGrCrArArUrUrUrCrCrGrArCrUrGdTdT / antisense rCrArGrUrCrGrGrArArArUrUrGrCrGrArGrGrGdAdC” was 84.5%; that for “sense rCrCrUrArArUrGrArUrGrUrCrUrArArArGrArAdTdT / antisense rUrUrCrUrUrUrArGrArCrArUrCrArUrUrArGrGdCdG” was 95.1%. “sense rCrCrUrCrArGrCrCrGrCrCrCrGrArArGrGrArCdTdT / antisense rGrUrCrCrUrUrCrGrGrGrCrGrGrCrUrGrArGrGdGdA” returned a normalised inhibition (eCFP-eYFP dual reporter) of 55.2%. The value for “sense rCrCrUrCrCrArArGrArArCrArArUrUrUrArUrGdTdT / antisense rCrArUrArArArUrUrGrUrUrCrUrUrGrGrArGrGdCdC” was 63.1%; that for “sense rCrCrUrUrUrGrUrArArGrArUrUrUrGrUrArArCdTdT / antisense rGrUrUrArCrArArArUrCrUrUrArCrArArArGrGdGdG” was 63.8%. The value for “sense rCrGrArArUrArUrArCrArGrCrCrUrUrArArArAdTdT / antisense rUrUrUrUrArArGrGrCrUrGrUrArUrArUrUrCrGdGdT” was 89.4%; that for “sense rCrUrArGrArArArArUrUrUrCrArCrUrGrCrArAdTdT / antisense rUrUrGrCrArGrUrGrArArArUrUrUrUrCrUrArGdGdT” was 96%; that for “sense rCrUrArGrArArGrArUrGrArCrGrArArGrArCrAdTdT / antisense rUrGrUrCrUrUrCrGrUrCrArUrCrUrUrCrUrArGdAdC” was 88.8%. Substance “sense rCrUrUrGrArArCrCrUrArGrArArArArUrUrUrCdTdT / antisense rGrArArArUrUrUrUrCrUrArGrGrUrUrCrArArGdTdC” yielded a normalised inhibition (eCFP-eYFP dual reporter) of 53.5%. With “sense rGrArArArArUrUrUrCrArCrUrGrCrArArArGrGdTdT / antisense rCrCrUrUrUrGrCrArGrUrGrArArArUrUrUrUrCdTdA”, the normalised inhibition (eCFP-eYFP dual reporter) amounted to 83.7%. The value for “sense rGrArArGrArArCrUrCrGrArArGrArArGrGrCrCdTdT / antisense rGrGrCrCrUrUrCrUrUrCrGrArGrUrUrCrUrUrCdCdA” was 53.8%; that for “sense rGrArArGrArUrGrArCrGrArArGrArCrArUrGrAdTdT / antisense rUrCrArUrGrUrCrUrUrCrGrUrCrArUrCrUrUrCdTdA” was 95%. Substance “sense rGrArGrCrCrArUrArUrCrArGrUrGrCrUrArGrCdTdT / antisense rGrCrUrArGrCrArCrUrGrArUrArUrGrGrCrUrCdTdT” yielded a normalised inhibition (eCFP-eYFP dual reporter) of 90.9%.

“sense rGrCrArArGrArGrCrUrUrCrGrGrCrGrCrCrUrAdTdT / antisense rUrArGrGrCrGrCrCrGrArArGrCrUrCrUrUrGrCdAdG”: the normalised inhibition (eCFP-eYFP dual reporter) came to 82.6%.

In turn, “sense rGrCrArGrArArUrUrCrArUrArUrArGrCrArUrCdTdT / antisense rGrArUrGrCrUrArUrArUrGrArArUrUrCrUrGrCdCdA” came in with a normalised inhibition (eCFP-eYFP dual reporter) of 82%. The value for “sense rGrCrCrArUrArUrCrArGrUrGrCrUrArGrCrArAdTdT / antisense rUrUrGrCrUrArGrCrArCrUrGrArUrArUrGrGrCdTdC” was 92.1%; that for “sense rGrCrCrUrArArUrGrArUrGrUrCrUrArArArGrAdTdT / antisense rUrCrUrUrUrArGrArCrArUrCrArUrUrArGrGrCdGdC” was 94.5%. The value for “sense rGrCrCrUrCrCrArArGrArArCrArArUrUrUrArUdTdT / antisense rArUrArArArUrUrGrUrUrCrUrUrGrGrArGrGrCdCdC” was 76.5%; that for “sense rGrGrArGrUrArArArArGrUrCrCrCrUrCrGrCrAdTdT / antisense rUrGrCrGrArGrGrGrArCrUrUrUrUrArCrUrCrCdTdT” was 88.7%; that for “sense rGrGrArUrGrArUrArArUrUrGrGrGrCrCrUrCrCdTdT / antisense rGrGrArGrGrCrCrCrArArUrUrArUrCrArUrCrCdCdT” was 70.5%. The value for “sense rGrGrGrUrCrUrArGrArArGrArUrGrArCrGrArAdTdT / antisense rUrUrCrGrUrCrArUrCrUrUrCrUrArGrArCrCrCdCdA” was 96.3%. With “sense rGrGrUrGrGrArCrCrCrArArGrArGrCrCrArUrAdTdT / antisense rUrArUrGrGrCrUrCrUrUrGrGrGrUrCrCrArCrCdAdC”, the normalised inhibition (eCFP-eYFP dual reporter) was determined as 84.1%. The value for “sense rGrUrArGrGrArGrArUrGrGrCrArCrArGrUrUrAdTdT / antisense rUrArArCrUrGrUrGrCrCrArUrCrUrCrCrUrArCdTdC” was 88.8%. The value for “sense rGrUrCrUrArArArGrArArArArUrArUrGrArArAdTdT / antisense rUrUrUrCrArUrArUrUrUrUrCrUrUrUrArGrArCdAdT” was 75.3%; that for “sense rGrUrCrUrArGrArArGrArUrGrArCrGrArArGrAdTdT / antisense rUrCrUrUrCrGrUrCrArUrCrUrUrCrUrArGrArCdCdC” was 92%; that for “sense rUrArCrArArGrArUrGrGrArCrArGrGrGrArUrGdTdT / antisense rCrArUrCrCrCrUrGrUrCrCrArUrCrUrUrGrUrAdAdG” was 52.7%. The value for “sense rUrArGrCrArArArArUrGrGrCrArGrArArUrUrCdTdT / antisense rGrArArUrUrCrUrGrCrCrArUrUrUrUrGrCrUrAdGdC” was 63%. “sense rUrArGrCrUrGrGrGrGrUrCrUrArGrArArGrArUdTdT / antisense rArUrCrUrUrCrUrArGrArCrCrCrCrArGrCrUrAdAdC” displayed a normalised inhibition (eCFP-eYFP dual reporter) of 82.8%. The value for “sense rUrArUrArGrCrArUrCrArArArGrUrUrGrUrCrCdTdT / antisense rGrGrArCrArArCrUrUrUrGrArUrGrCrUrArUrAdTdG” was 47%; that for “sense rUrCrArArArGrUrUrGrUrCrCrUrGrCrArArGrAdTdT / antisense rUrCrUrUrGrCrArGrGrArCrArArCrUrUrUrGrAdTdG” was 89.8%; that for “sense rUrCrArUrArUrArGrCrArUrCrArArArGrUrUrGdTdT / antisense rCrArArCrUrUrUrGrArUrGrCrUrArUrArUrGrAdAdT” was 49%.

Substance “sense rUrCrCrCrUrCrArGrCrCrGrCrCrCrGrArArGrGdTdT / antisense rCrCrUrUrCrGrGrGrCrGrGrCrUrGrArGrGrGrAdGdT” had a normalised inhibition (eCFP-eYFP dual reporter) of 46.6%.

The substance “sense rUrCrGrCrArArUrUrUrCrCrGrArCrUrGrUrUrGdTdT / antisense rCrArArCrArGrUrCrGrGrArArArUrUrGrCrGrAdGdG” had a normalised inhibition (eCFP-eYFP dual reporter) of 85.6%. The value for “sense rUrCrGrGrCrGrCrCrUrArArUrGrArUrGrUrCrUdTdT / antisense rArGrArCrArUrCrArUrUrArGrGrCrGrCrCrGrAdAdG” was 78.8%. The value for “sense rUrCrUrArGrArArGrArUrGrArCrGrArArGrArCdTdT / antisense rGrUrCrUrUrCrGrUrCrArUrCrUrUrCrUrArGrAdCdC” was 58%; that for “sense rUrGrArArCrCrUrArGrArArArArUrUrUrCrArCdTdT / antisense rGrUrGrArArArUrUrUrUrCrUrArGrGrUrUrCrAdAdG” was 43%. Turning to “sense rUrGrArGrUrGrArUrGrArArGrGrArArGrArCrUdTdT / antisense rArGrUrCrUrUrCrCrUrUrCrArUrCrArCrUrCrAdGdT”, the normalised inhibition (eCFP-eYFP dual reporter) came out at 62.3%. As to “sense rUrGrCrUrArGrCrArArArArUrGrGrCrArGrArAdTdT / antisense rUrUrCrUrGrCrCrArUrUrUrUrGrCrUrArGrCrAdCdT”, the normalised inhibition (eCFP-eYFP dual reporter) came to 71.4%.

Substance “sense rUrGrGrArArGrArArCrUrCrGrArArGrArArGrGdTdT / antisense rCrCrUrUrCrUrUrCrGrArGrUrUrCrUrUrCrCrAdAdC” registered a normalised inhibition (eCFP-eYFP dual reporter) of 59.9%.

“sense rUrGrGrCrArGrArArUrUrCrArUrArUrArGrCrAdTdT / antisense rUrGrCrUrArUrArUrGrArArUrUrCrUrGrCrCrAdTdT” returned a normalised inhibition (eCFP-eYFP dual reporter) of 89.7%. The value for “sense rUrGrGrGrCrCrUrCrCrArArGrArArCrArArUrUdTdT / antisense rArArUrUrGrUrUrCrUrUrGrGrArGrGrCrCrCrAdAdT” was 57.1%. The value for “sense rUrGrGrGrGrUrCrUrArGrArArGrArUrGrArCrGdTdT / antisense rCrGrUrCrArUrCrUrUrCrUrArGrArCrCrCrCrAdGdC” was 38.8%. For “sense rUrUrArArArArUrArGrArArUrGrUrGrGrArCrCdTdT / antisense rGrGrUrCrCrArCrArUrUrCrUrArUrUrUrUrArAdGdG”, the normalised inhibition (eCFP-eYFP dual reporter) worked out at 38.8%. In the case of “sense rUrUrCrArCrUrGrCrArArArGrGrArGrUrArArAdTdT / antisense rUrUrUrArCrUrCrCrUrUrUrGrCrArGrUrGrArAdAdT”, the normalised inhibition (eCFP-eYFP dual reporter) stood at 81.4%. Turning to “sense rUrUrCrCrGrArCrUrGrUrUrGrGrArArGrArArCdTdT / antisense rGrUrUrCrUrUrCrCrArArCrArGrUrCrGrGrArAdAdT”, the normalised inhibition (eCFP-eYFP dual reporter) is 52.3%.
